Source: patent US20200308184A1, “TETRAPYRROLIC CONJUGATES AND USES THEREOF FOR IMAGING” (Health Research, Inc., priority 2017, published 2020)
Where two headings read alike, the source gives them in different places.

Key:
[1] = published value, 37 C; cited from earlier work
[2] = tested on: Ward rat tumor; details: HPPH alone, previous findings; cited from earlier work
[3] = T1 and T2 relaxivities of compounds 4, 9 & 14 on 4.7 Tesla preclinical MRI; format: physicochemical; details: T1 relaxivity, 37C, in PBS
Protocol: Characterization of MR imaging efficacy for compounds 4, 9 & 14. MR imaging was performed on a 4.7 Tesla preclinical MRI using the ParaVision 3.0.2 acquisition platform (Bruker Biospin, Billerica Mass.). In vitro relaxivities were acquired using the Bruker G060 gradient insert and a quadrature radiofrequency coil (35 mm ID, m2m Imaging, Cleveland Ohio). In vivo imaging in rat models utilized larger Accustar® shield gradients (150 mm ID) and a quadrature radiofrequency coil (72 mm ID, Bruker Biospin).
T1 and T2 relaxivities for compounds 4, 9 & 14 were acquired at 37C. Samples were diluted in PBS with concentrations ranging from 50 to 200 μM and transferred to NMR tubes for imaging. A tube containing 1× PBS was included as a “0 μM control”. T1 relaxation rates of serial dilutions were measured using an inversion-recovery TrueFISP acquisition with the following parameters: TE/TR=1.5/3.0 ms, flip angle=30°, inv. Repetition time=10 s, segments=8, frames=100. T2 relaxation rates were measured using a multi-echo, Carr-Purcell-Meiboom-Gill (CPMG) spin-echo sequence with a fixed TR of 3000 ms and TE times ranging from 20-1200 ms in 20 ms increments (60 echoes). The relaxation rate of each sample calculated using non-linear regression analysis routines developed in MATLAB (MathWorks, Natick, Mass.) and relaxivities were then calculated by linear regression (concentration vs. relaxation rate).

| Compound | rl at 4.7T [1] | rl at 4.7T [3] | further results |
| --- | --- | --- | --- |
| O=C([O-])CN1CCN(CC(=O)[O-])CCN(CC(=O)O)CCN(CC(=O)[O-])CC1.[Gd+3] [Gd-DOTA] | 2.8 mM/s |  |  |
| O=C([O-])CN(CCN(CC(=O)[O-])CC(=O)O)CCN(CC(=O)[O-])CC(=O)O.[Gd+3] [Gd-DTPA, Gadolinium-diethyline-triamine pentacetic-acid] | 3.2 mM/s |  |  |
| CCCCCCOC(C)c1c(C)c2cc3nc(c4c5[nH]c(cc6nc(cc1[nH]2)C(C)=C6CC)c(C)c5C(=O)C4)[C@@H](CCC(=O)O)[C@@H]3C (some centres unmarked) [HPPH, 3-(1-hexyloxyethyl) pyropheophorbide-a] |  |  | time of peak concentrations [2]: 24 h |
| CCCCCCOC(C)c1c(C)c2cc3nc(c4c5[nH]c(cc6nc(cc1[nH]2)C(C)=C6CC)c(C)c5C(=O)C4)[C@@H](CCC(=O)NCCNC(=O)CN1CCN(CC(=O)[O-])CCN(CC(=O)[O-])CCN(CC(=O)[O-])CC1)C3C.[Gd+3] (some centres unmarked) [compound 4] |  | 4.44 mM/s |  |
| CCCCCCOC(C)c1c(C)c2cc3nc(c4c5[nH]c(cc6nc(cc1[nH]2)C(C)=C6CC)c(C)c5C(=O)C4)[C@@H](CCC(=O)N(CC(=O)NCCNC(=O)CN1CCN(CC(=O)[O-])CCN(CC(=O)[O-])CCN(CC(=O)[O-])CC1)CC(=O)NCCNC(=O)CN1CCN(CC(=O)[O-])CCN(CC(=O)[O-])CCN(CC(=O)[O-])CC1)C3C.[Gd+3].[Gd+3] (some centres unmarked) [compound 9] |  | 10.65 mM/s |  |
